The NIST ThermoML archive (doi:10.1016/j.jct.2004.12.014)

Tests used:
[1] = 318.15 K; 101.33 kPa; Liquid
[2] = xn = mol fraction of the nth substance listed; conditions: 318.15 K, 101 kPa, Liquid
[3] = excess molar enthalpy (molar enthalpy of mixing); xn = mol fraction of the nth substance listed; conditions: 318.15 K, 101 kPa, Liquid
[4] = refractive index (Na D-line) (dimensionless); conditions: 318.15 K; 101.33 kPa; Liquid; Standard Abbe refractometry

CCCCCOC(=O)CC [pentyl propanoate]
Conditions | mass density [kg/m3]
[1] | 848.98

CCCCOC(=O)CC [butyl propanoate] + CCCCCCCCCCCCC
Conditions | excess molar enthalpy [kcal/mol] | excess molar volume [m3/mol]
[2], x1 = 0.0406 | – | 1.23e-07
[2], x1 = 0.0973 | – | 2.84e-07
[2], x1 = 0.1791 | – | 4.62e-07
[2], x1 = 0.2615 | – | 6.48e-07
[2], x1 = 0.3352 | – | 7.42e-07
[2], x1 = 0.4049 | – | 8.02e-07
[2], x1 = 0.4702 | – | 8.32e-07
[2], x1 = 0.5333 | – | 8.34e-07
[2], x1 = 0.5918 | – | 8.19e-07
[2], x1 = 0.6472 | – | 7.81e-07
[2], x1 = 0.6989 | – | 7.36e-07
[2], x1 = 0.7487 | – | 6.45e-07
[2], x1 = 0.7961 | – | 5.77e-07
[2], x1 = 0.84 | – | 4.79e-07
[2], x1 = 0.8821 | – | 3.67e-07
[2], x1 = 0.9219 | – | 2.68e-07
[2], x1 = 0.9617 | – | 1.52e-07
[3], x1 = 0.0777 | 0.0756 | –
[3], x1 = 0.152 | 0.132 | –
[3], x1 = 0.2315 | 0.185 | –
[3], x1 = 0.3105 | 0.227 | –
[3], x1 = 0.3857 | 0.253 | –
[3], x1 = 0.4542 | 0.266 | –
[3], x1 = 0.5154 | 0.27 | –
[3], x1 = 0.5619 | 0.267 | –
[3], x1 = 0.6157 | 0.26 | –
[3], x1 = 0.6596 | 0.244 | –
[3], x1 = 0.7081 | 0.225 | –
[3], x1 = 0.7591 | 0.196 | –
[3], x1 = 0.8107 | 0.165 | –
[3], x1 = 0.857 | 0.132 | –
[3], x1 = 0.9081 | 0.0902 | –
[3], x1 = 0.9555 | 0.0467 | –

CCCCCCCCCCC [undecane] + CCOC(=O)CC
Conditions | excess molar enthalpy [kcal/mol] | excess molar volume [m3/mol]
[2], x2 = 0.0488 | – | 2.1e-07
[2], x2 = 0.1093 | – | 4.32e-07
[2], x2 = 0.1996 | – | 6.94e-07
[2], x2 = 0.2885 | – | 9.21e-07
[2], x2 = 0.3652 | – | 1.049e-06
[2], x2 = 0.4355 | – | 1.121e-06
[2], x2 = 0.5015 | – | 1.154e-06
[2], x2 = 0.5629 | – | 1.147e-06
[2], x2 = 0.621 | – | 1.119e-06
[2], x2 = 0.6752 | – | 1.071e-06
[2], x2 = 0.7242 | – | 9.82e-07
[2], x2 = 0.7714 | – | 8.93e-07
[2], x2 = 0.816 | – | 7.79e-07
[2], x2 = 0.8558 | – | 6.55e-07
[2], x2 = 0.895 | – | 5.1e-07
[2], x2 = 0.9301 | – | 3.49e-07
[2], x2 = 0.9671 | – | 2.01e-07
[3], x2 = 0.0755 | 0.0914 | –
[3], x2 = 0.1612 | 0.168 | –
[3], x2 = 0.2482 | 0.238 | –
[3], x2 = 0.3331 | 0.29 | –
[3], x2 = 0.4028 | 0.32 | –
[3], x2 = 0.4629 | 0.336 | –
[3], x2 = 0.5094 | 0.341 | –
[3], x2 = 0.5483 | 0.34 | –
[3], x2 = 0.5806 | 0.336 | –
[3], x2 = 0.6255 | 0.325 | –
[3], x2 = 0.6622 | 0.311 | –
[3], x2 = 0.7018 | 0.292 | –
[3], x2 = 0.7511 | 0.261 | –
[3], x2 = 0.7996 | 0.225 | –
[3], x2 = 0.8514 | 0.177 | –
[3], x2 = 0.9026 | 0.125 | –
[3], x2 = 0.9521 | 0.0667 | –

CCCCCOC(=O)CC [pentyl propanoate] + CCCCCCCCCCCCC
Conditions | excess molar enthalpy [kcal/mol] | excess molar volume [m3/mol]
[2], x1 = 0.0877 | – | 2.09e-07
[2], x1 = 0.1642 | – | 3.71e-07
[2], x1 = 0.2425 | – | 5.1e-07
[2], x1 = 0.3196 | – | 6.05e-07
[2], x1 = 0.3804 | – | 6.65e-07
[2], x1 = 0.4461 | – | 6.93e-07
[2], x1 = 0.5107 | – | 7.04e-07
[2], x1 = 0.5701 | – | 6.95e-07
[2], x1 = 0.6258 | – | 6.64e-07
[2], x1 = 0.6801 | – | 6.16e-07
[2], x1 = 0.7305 | – | 5.62e-07
[2], x1 = 0.7814 | – | 4.99e-07
[2], x1 = 0.8272 | – | 4.41e-07
[2], x1 = 0.8719 | – | 3.34e-07
[2], x1 = 0.9166 | – | 2.64e-07
[2], x1 = 0.9578 | – | 1.29e-07
[3], x1 = 0.0691 | 0.0578 | –
[3], x1 = 0.1382 | 0.105 | –
[3], x1 = 0.2136 | 0.151 | –
[3], x1 = 0.2861 | 0.185 | –
[3], x1 = 0.3564 | 0.209 | –
[3], x1 = 0.4222 | 0.224 | –
[3], x1 = 0.4822 | 0.229 | –
[3], x1 = 0.5355 | 0.228 | –
[3], x1 = 0.578 | 0.222 | –
[3], x1 = 0.5956 | 0.219 | –
[3], x1 = 0.6423 | 0.207 | –
[3], x1 = 0.6875 | 0.193 | –
[3], x1 = 0.7398 | 0.171 | –
[3], x1 = 0.7927 | 0.148 | –
[3], x1 = 0.8474 | 0.118 | –
[3], x1 = 0.9008 | 0.0823 | –
[3], x1 = 0.9546 | 0.0415 | –

CCC(=O)OC [methyl propanoate]
Conditions | mass density [kg/m3] | refractive index
[1] | 884.6 | –
[4] | – | 1.3641

CCCCOC(=O)CC [butyl propanoate] + CCCCCCCCCCC
Conditions | excess molar enthalpy [kcal/mol] | excess molar volume [m3/mol]
[2], x1 = 0.0439 | – | 1.43e-07
[2], x1 = 0.0844 | – | 2.51e-07
[2], x1 = 0.1613 | – | 4.24e-07
[2], x1 = 0.2331 | – | 5.45e-07
[2], x1 = 0.3029 | – | 6.41e-07
[2], x1 = 0.3719 | – | 7.16e-07
[2], x1 = 0.4347 | – | 7.45e-07
[2], x1 = 0.4991 | – | 7.49e-07
[2], x1 = 0.5571 | – | 7.43e-07
[2], x1 = 0.6136 | – | 7.09e-07
[2], x1 = 0.6682 | – | 6.64e-07
[2], x1 = 0.7205 | – | 6.18e-07
[2], x1 = 0.7715 | – | 5.27e-07
[2], x1 = 0.8193 | – | 4.41e-07
[2], x1 = 0.8661 | – | 3.61e-07
[2], x1 = 0.9118 | – | 2.76e-07
[2], x1 = 0.9546 | – | 1.35e-07
[3], x1 = 0.0817 | 0.0786 | –
[3], x1 = 0.1628 | 0.132 | –
[3], x1 = 0.2473 | 0.183 | –
[3], x1 = 0.325 | 0.215 | –
[3], x1 = 0.3967 | 0.234 | –
[3], x1 = 0.463 | 0.243 | –
[3], x1 = 0.4868 | 0.243 | –
[3], x1 = 0.5197 | 0.243 | –
[3], x1 = 0.5243 | 0.242 | –
[3], x1 = 0.5644 | 0.239 | –
[3], x1 = 0.6091 | 0.232 | –
[3], x1 = 0.6567 | 0.224 | –
[3], x1 = 0.7051 | 0.201 | –
[3], x1 = 0.7582 | 0.175 | –
[3], x1 = 0.8113 | 0.147 | –
[3], x1 = 0.8642 | 0.114 | –
[3], x1 = 0.9137 | 0.0779 | –
[3], x1 = 0.9601 | 0.04 | –

CCCCCCCCCCCCCCC [pentadecane] + CCOC(=O)CC
Conditions | excess molar enthalpy [kcal/mol] | excess molar volume [m3/mol]
[2], x2 = 0.0586 | – | 2.35e-07
[2], x2 = 0.1287 | – | 4.67e-07
[2], x2 = 0.2483 | – | 8.47e-07
[2], x2 = 0.3372 | – | 1.053e-06
[2], x2 = 0.4269 | – | 1.184e-06
[2], x2 = 0.502 | – | 1.246e-06
[2], x2 = 0.5673 | – | 1.252e-06
[2], x2 = 0.6288 | – | 1.223e-06
[2], x2 = 0.6845 | – | 1.156e-06
[2], x2 = 0.7304 | – | 1.087e-06
[2], x2 = 0.7744 | – | 9.92e-07
[2], x2 = 0.8148 | – | 8.88e-07
[2], x2 = 0.8537 | – | 7.69e-07
[2], x2 = 0.8864 | – | 6.38e-07
[2], x2 = 0.919 | – | 5.21e-07
[2], x2 = 0.9481 | – | 3.55e-07
[2], x2 = 0.9742 | – | 1.89e-07
[3], x2 = 0.1045 | 0.128 | –
[3], x2 = 0.2122 | 0.227 | –
[3], x2 = 0.3158 | 0.312 | –
[3], x2 = 0.4055 | 0.364 | –
[3], x2 = 0.4848 | 0.392 | –
[3], x2 = 0.5368 | 0.399 | –
[3], x2 = 0.5811 | 0.398 | –
[3], x2 = 0.6068 | 0.393 | –
[3], x2 = 0.6156 | 0.391 | –
[3], x2 = 0.6409 | 0.382 | –
[3], x2 = 0.6796 | 0.366 | –
[3], x2 = 0.7199 | 0.341 | –
[3], x2 = 0.761 | 0.313 | –
[3], x2 = 0.8036 | 0.273 | –
[3], x2 = 0.846 | 0.229 | –
[3], x2 = 0.8889 | 0.181 | –
[3], x2 = 0.9311 | 0.124 | –
[3], x2 = 0.9692 | 0.0613 | –

CCCCCOC(=O)CC [pentyl propanoate] + CCCCCCCCCCCCCCCCC
Conditions | excess molar enthalpy [kcal/mol] | excess molar volume [m3/mol]
[2], x1 = 0.1083 | – | 2.44e-07
[2], x1 = 0.2045 | – | 4.6e-07
[2], x1 = 0.2891 | – | 6.18e-07
[2], x1 = 0.3649 | – | 6.95e-07
[2], x1 = 0.4391 | – | 7.63e-07
[2], x1 = 0.5053 | – | 8.03e-07
[2], x1 = 0.5658 | – | 7.98e-07
[2], x1 = 0.6233 | – | 7.82e-07
[2], x1 = 0.6778 | – | 7.45e-07
[2], x1 = 0.7277 | – | 6.88e-07
[2], x1 = 0.7752 | – | 6.07e-07
[2], x1 = 0.8185 | – | 5.23e-07
[2], x1 = 0.8587 | – | 4.3e-07
[2], x1 = 0.8969 | – | 3.33e-07
[2], x1 = 0.9324 | – | 2.44e-07
[2], x1 = 0.9677 | – | 1.14e-07
[3], x1 = 0.1196 | 0.103 | –
[3], x1 = 0.2114 | 0.166 | –
[3], x1 = 0.3026 | 0.217 | –
[3], x1 = 0.3904 | 0.251 | –
[3], x1 = 0.469 | 0.269 | –
[3], x1 = 0.5373 | 0.273 | –
[3], x1 = 0.5951 | 0.267 | –
[3], x1 = 0.6196 | 0.26 | –
[3], x1 = 0.6625 | 0.247 | –
[3], x1 = 0.7073 | 0.228 | –
[3], x1 = 0.7545 | 0.203 | –
[3], x1 = 0.8044 | 0.177 | –
[3], x1 = 0.8552 | 0.143 | –
[3], x1 = 0.9052 | 0.101 | –
[3], x1 = 0.9542 | 0.0541 | –
